Series [1] can be described thus: (§1) Cytotoxicity against Homo sapiens (human) A549 cells assessed as viable cells at 250 uM by MTT assay in presence of fetal bovine serum. It is filed as cell-based. The settings on record: A549 cells, read-out: Activity.
The test system of series [2] is Mycobacterium tuberculosis. Kind of series: Antitubercular activity against Mycobacterium tuberculosis H37Rv assessed as growth inhibition after 21 days by broth dilution assay method. It is filed as functional. The settings on record: 504 h.
The next series has as its system Klebsiella pneumoniae. Kind of series: Antimicrobial activity against Klebsiella pneumoniae ATCC 10031 assessed as growth inhibition after 24 hr by broth dilution assay method. The settings on record: ATCC 10031, 24 h. It is filed as functional. A general note: Dilution methods test growth across graded concentrations, often in twofold steps.
In another series the test system is Saccharomyces cerevisiae. Nature of the series: Antimicrobial activity against Saccharomyces cerevisiae ATCC 9763 assessed as growth inhibition after 24 hr by broth dilution assay method. The format is functional. The settings on record: ATCC 9763, 24 h.
In another series the test system is Aspergillus niger. Nature of the series: Antimicrobial activity against Aspergillus niger ATCC 6275 assessed as growth inhibition after 24 hr by broth dilution assay method. The format is functional. The settings on record: ATCC 6275, 24 h.
The next series concerns Staphylococcus aureus. Kind of series: Antimicrobial activity against Staphylococcus aureus ATCC 11632 assessed as growth inhibition after 24 hr by broth dilution assay method. The format is functional. The settings on record: ATCC 11632, 24 h.
Another series concerns Candida tropicalis. Nature of the series: Antimicrobial activity against Candida tropicalis ATCC 1369 assessed as growth inhibition after 24 hr by broth dilution assay method. It is filed as functional. The settings on record: ATCC 1369, 24 h.
A further series has as its system Bacillus subtilis. Nature of the series: Antimicrobial activity against Bacillus subtilis ATCC 60511 assessed as growth inhibition after 24 hr by broth dilution assay method. The settings on record: ATCC 60511, 24 h. The format is functional.
A further series relates to Escherichia coli. Nature of the series: Antimicrobial activity against Escherichia coli ATCC 10536 assessed as growth inhibition after 24 hr by broth dilution assay method. The format is functional. The settings on record: ATCC 10536, 24 h.
For another series, the system named is Enterococcus faecalis. Kind of series: Antimicrobial activity against […] ATCC 14506 assessed as growth inhibition after 24 hr by broth dilution assay method. The format is functional. The settings on record: ATCC 14506, 24 h.
A further series has as its system Pseudomonas aeruginosa. Kind of series: Antimicrobial activity against Pseudomonas aeruginosa ATCC 10145 assessed as growth inhibition after 24 hr by broth dilution assay method. It is filed as functional. The settings on record: ATCC 10145, 24 h.
The subject of a further series is A549. The description is as §1. It is filed as cell-based. The settings on record: a549, 250 µM.

≈ marks a conversion by molar mass, not a printed value.

One may read the MIC as the lowest concentration found to suppress growth.

Take `CC(C)c1csc(-c2nnc(SCC(=O)NN)n2-c2ccccc2)n1`: in series [1], the viability at 250 µM was 50%. Further, the MIC in [2] came to 16 µg/mL (≈ 42.7 µM); in the series on Klebsiella pneumoniae, 8 µg/mL (≈ 21.4 µM); in the series with Saccharomyces cerevisiae, 62.5 µg/mL (≈ 167 µM); with Aspergillus niger, 31.2 µg/mL (≈ 83.4 µM); with Staphylococcus aureus, 16 µg/mL (≈ 42.7 µM); in the series with Candida tropicalis it was 31.2 µg/mL (≈ 83.4 µM). The MIC in the series on Bacillus subtilis came to 31.2 µg/mL (≈ 83.4 µM); in the series on Escherichia coli, 8 µg/mL (≈ 21.4 µM); in the series with Enterococcus faecalis, 31.2 µg/mL (≈ 83.4 µM); with Pseudomonas aeruginosa it was 8 µg/mL (≈ 21.4 µM).
As to `CC(C)c1csc(-c2nnc(SCC(=O)N/N=C/c3ccc(O)cc3)n2-c2ccccc2)n1`, the Activity entry in the series with A549 was “Toxic”. The minimum inhibitory concentration (MIC) was 8 µg/mL (≈ 16.7 µM) in [2]; 16 µg/mL (≈ 33.4 µM) in the series on Klebsiella pneumoniae; 31.2 µg/mL (≈ 65.3 µM) with Aspergillus niger; 125 µg/mL (≈ 261 µM) with Staphylococcus aureus; 62.5 µg/mL (≈ 131 µM) with Candida tropicalis; 125 µg/mL (≈ 261 µM) in the series on Bacillus subtilis. The MIC was determined as 125 µg/mL (≈ 261 µM) with Escherichia coli, 16 µg/mL (≈ 33.4 µM) in the series with Enterococcus faecalis and 62.5 µg/mL (≈ 131 µM) in the series on Pseudomonas aeruginosa.
